Here are results for one compound from patent US10709724B2, “Methods of treating mitochondrial dysfunction” (Ecole Polytechnique Federale de Lausanne (EPFL), priority 2011, dated 2020).

The structures appear in SMILES notation.

For the experiment, the system named is C57Bl/6J male mice. Put plainly: PJ34 treatment of mice (5 days). Format: in vivo. The following applies: 10 mg/kg i.p. twice a day. The method, then:
Animal Experiments. Male PARP-1^+/+ and PARP-1^−/− mice on a pure C57Bl/6J background (Menissier-de Murcia et al., 1997) were used. Mice were housed separately, had ad libitum access to water and standard rodent chow (10 kcal % of fat, Safe, Augy, France) or to a high calorie, high fat diet (60 kcal % of fat, Research. Diets, New Brunswick, N.J., USA), and were kept under a 12 h dark-light cycle. In other animal experiments, 8 weeks-old male C57Bl/6J mice were purchased from Charles River and powder chow (D12450B) and high fat (D12492) diets were from Research Diets Inc (New Brunswick, N.J., USA). 80 ml of water per kg of powder CD were used to make food pellets. 40 ml of water per kg of powder HFD were used to make food pellets. For NR, NMN and NA supplemented diets, the appropriate amount of these compounds was added to the water used to create the pellets, taking into account the differences in the daily intake of each diet. Mice were housed separately, had ad libitum access to water and food and were kept under a 12 h dark-light cycle. Mice were fed with homemade pellets from 10 weeks of age. To make the pellets, the powder food was mixed with water (vehicle) or with NR. All animal experiments were carried out according to local national and EU ethical guidelines. To monitor body weight, mice were weighed and the food consumption was measured each week on the same day. In case of PJ34 treatment, mice received each 12 h (at 7:00 and 19:00) 10 mg/kg PJ34 by intraperitoneal injection for 5 continuous days. In all studies animals were killed (at 14:00) either after CO2 inhalation or cervical dislocation after 6 h of fasting (starting at 8:00), and tissues were collected and processed as specified below. Oral glucose tolerance test, intraperitoneal insulin tolerance test, free fatty acid (FFA) and triglycerides were determined as described (Lagouge et al., 2006). Plasma insulin and was determined in heparinized plasma samples using specific ELISA kits (Mercodia). Blood samples were collected in heparinized tubes and plasma was isolated after centrifugation. Plasma parameters were measured using a Cobas c111 (Roche Diagnostics). Thermoadaptation was performed as described (Lagouge et al., 2006). We measured O2 consumption, CO2 production, and spontaneous locomotor activity in an open circuit indirect calorimetry system (Sabre systems, Las Vegas, Nev., USA) over 24-48 has described (Dali-Youcef et al., 2007; Lagouge et al., 2006; Watanabe et al., 2006). […] The respiratory quotient was the ratio of CO2 production over O2 consumption. During actimetry, beamline crossings were summarized each 15 minutes. […] Euglycemic-hyperinsulinemic clamps were performed in PARP-1^−/− and ^+/+ male mice (n=4 mice per genotype; age=4 months) exactly as previously described (Feige et al, 2008).
mRNA and mtDNA Analysis. Total RNA was prepared using TRIzol (Invitrogen) according to the manufacturer's instructions. RNA was treated with DNase, and 2 μg of RNA was used for reverse transcription (RT). cDNA was purified on QIAquick PCR cleanup columns (Qiagen, Valencia, Calif., USA). 50× diluted cDNA was used for RT-quantitative PCR (RT-VCR) VCR) reactions (Bai et al., 2007). The RT-qPCR reactions were performed using the Light-Cycler system (Roche Applied Science) and a qPCR Supermix (Qiagen) with the primers for mice summarized in Table 1 and 4, and with the primers for worms summarized on Table 7. mtDNA quantification was performed as described (Lagouge et al., 2006) with the primers indicated in Table 2 and 5.
Immunoprecipitation, SDS-PAGE, Western Blotting. Cells were lysed in lysis buffer (50 mM Tris, […], EDTA 1 mM, NP40 1%, nicotinamide 5 mM, Na-butyrate 1 in M, protease inhibitors pH7.4). Proteins were separated by SDS-PAGE and transferred onto nitrocellulose membranes. The origin of the primary and secondary antibodies used can be found as supplemental experimental procedures. […]

Consider `CN(C)CC(=O)Nc1ccc2[nH]c(=O)c3ccccc3c2c1` [PJ34], for which the “Dio2 mRNA in BAT” value is recorded as “significantly induced”; the “Myoglobin mRNA levels in muscle” value is recorded as “increase in Myoglobin mRNA levels”; the “NAD+ levels in BAT and muscle” value is “edged up in PJ34-treated animals, even though the increase was only statistically significant in muscle”; the “PARP activity in BAT and muscle” value was “robustly decrease PARP activity”. Also, the “PGC-1α acetylation levels in BAT and muscle” value is recorded as “reduced PGC-1α acetylation levels”; the “mitochondrial gene expression in BAT and muscle (Ndufa2, Ndufa5, UCP2, UCP3)” value is “tendency to a higher expression of a number of mitochondrial genes”. Under “vehicle 1.21±0.08, p=0.08”, the triglycerides turned out to be 1.11 ± 0.04 mM. Further, the “free fatty acid levels” value (vehicle 1.59±0.06, p=0.03) is recorded as 1.44±0.03 mEq/L. Where the note is “vehicle 9.94±0.28, p=0.05”, this compound yielded a blood glucose of 9.19 ± 0.58 mM.
